Experimental data reported in paper PMC11927176 (BMC Microbiology, 2025).

Test system: AadA37
Assay: coupled continuous spectrophotometric assay of pyrophosphate release
Assay type: biochemical, Morganella morganii
Details: 5 mM ATP, 10 mM MgCl2, 50 mM HEPES pH 7.5, 37 °C

Km	SMILES
8.17 µM	CN[C@@H]1[C@H](O)[C@H](NC)[C@H]2O[C@@]3(O)C(=O)C[C@@H](C)O[C@H]3O[C@@H]2[C@H]1O [Spectinomycin]
2.67 µM	CN[C@@H]1[C@H](O[C@H]2[C@H](O[C@H]3[C@H](O)[C@@H](O)[C@H](N=C(N)N)[C@@H](O)[C@@H]3N=C(N)N)O[C@@H](C)[C@]2(O)C=O)O[C@@H](CO)[C@H](O)[C@H]1O [Streptomycin]
